# Where two headings read alike, the source gives them in different places.
# Target: SMYD3 (Homo sapiens (Human), UniProt Q9H7B4)
# Assay: SMYD3 biochemical assay (SMYD3 enzyme assay on MEKK2 protein substrate, 3H-SAM scintillation proximity assay)
# Text: S-adenosylmethionine (SAM), S-adenosylhomocysteine (SAH), Tris, Tween20, dimethylsulfoxide (DMSO), bovine skin gelatin (BSG), and Tris(2-carboxyethyl)phosphine hydrochloride solution (TCEP) were purchased from Sigma-Aldrich at the highest level of purity possible. ^3H-SAM was purchase from American Radiolabeled Chemicals with a specific activity of 80 Ci/mmol. 384-well opaque white OptiPlates and SPA beads (Perkin Elmer, catalog # RPNQ0013) were purchased from PerkinElmer.
# N-terminally GST-tagged MEKK2 (MAP3K2) protein corresponding to reference sequence AAF63496.3 was purchased from Life Technologies (catalog # PV4010). This protein was expressed in High Five insect cells and purified to >85% purity. Protein identity was confirmed by MS/MS analysis after proteolytic digestion. The protein sequence used was:
# Full-length human SMYD3 isoform 1 (BAB86333) was inserted into a modified pET21b plasmid containing a His6 tag and TEV and SUMO cleavage sites.
# E. coli (BL21 codonplus RIL strain, Stratagene) were transformed with plasmid pEPZ553 by mixing competent cells and plasmid DNA and incubating on ice for 30 minutes followed by heat shock at 42° C. for 1 minute and cooling on ice for 2 minutes. Transformed cells were grown and selected on LB agar with 100 μg/mL ampicillin and 17 μg/mL chloramphenicol at 37° C. overnight. A single clone was used to inoculate 200 mL of LB medium with 100 μg/mL ampicillin and 17 μg/mL chloramphenicol and incubated at 37° C. on an orbital shaker at 180 rpm. Once in log growth, the culture was diluted 1:100 into 2 L of LB medium and grown until OD600 was about 0.3 after which the culture was incubated at 15° C. and 160 rpm. Once OD600 reached about 0.4, IPTG was added to a final concentration of 0.1 mM and the cells were grown overnight at 15° C. and 160 rpm. Cells were harvested by centrifugation at 8000 rpm, for 4 minutes at 4° C. and stored at −80° C. for purification.
# The column was washed with Buffer B (Buffer A plus 20 mM imidazole) and His-tagged SMYD3 was eluted with Buffer C (Buffer A plus 300 mM imidazole). The His tag, TEV and SUMO cleavage sites were removed generating native SMYD3 by addition of ULP1 protein at a ratio of 1:200 (ULP1:SMYD3). Imidazole was removed by dialysis overnight in Buffer A. The dialyzed solution was applied to a second Nickel column and the native SMYD3 protein was collected from the column flow-through. The flow-through was dialyzed in Buffer D (25 mM Tris, 5% glycerol, 5 mM β-mercaptoethanol, 50 mM NaCl, pH7.8) and ULP1 was removed using a Q sepharose fast flow column.
# General Procedure for SMYD3 Enzyme Assays on MEKK2 Protein Substrate
# The assays were all performed in a buffer consisting of 25 mM Tris-Cl pH 8.0, 1 mM TCEP, 0.005% BSG, and 0.005% Tween 20, prepared on the day of use. […] DMSO (1 ul) was added to Columns 11, 12, 23, 24, rows A-H for the maximum signal control and 1 ul of SAH, a known product and inhibitor of SMYD3, was added to columns 11, 12, 23, 24, rows I-P for the minimum signal control. A cocktail (40 ul) containing the SMYD3 enzyme was added by Multidrop Combi (Thermo-Fisher). The compounds were allowed to incubate with SMYD3 for 30 min at room temperature, then a cocktail (10 ul) containing SAM and MEKK2 was added to initiate the reaction (final volume=51 ul). […] The assays were stopped by the addition of non-radiolabeled SAM (10 ul) to a final concentration of 100 uM, which dilutes the ^3H-SAM to a level where its incorporation into MEKK2 is no longer detectable. Radiolabeled MEKK2 was detected using a scintillation proximity assay (SPA). 10 uL of a 10 mg/mL solution of SPA beads in 0.5 M citric acid was added and the plates centrifuged at 600 rpm for 1 min to precipitate the radiolabeled MEKK2 onto the SPA beads.
# [1] = Table 1A, average of n = 1 to n = 50, read-out: SMYD3 Biochem IC50
# [2] = read-out: SMYD3 Biochem IC50 (μM)*
# Sequence of SMYD3 (Q9H7B4 whole entry): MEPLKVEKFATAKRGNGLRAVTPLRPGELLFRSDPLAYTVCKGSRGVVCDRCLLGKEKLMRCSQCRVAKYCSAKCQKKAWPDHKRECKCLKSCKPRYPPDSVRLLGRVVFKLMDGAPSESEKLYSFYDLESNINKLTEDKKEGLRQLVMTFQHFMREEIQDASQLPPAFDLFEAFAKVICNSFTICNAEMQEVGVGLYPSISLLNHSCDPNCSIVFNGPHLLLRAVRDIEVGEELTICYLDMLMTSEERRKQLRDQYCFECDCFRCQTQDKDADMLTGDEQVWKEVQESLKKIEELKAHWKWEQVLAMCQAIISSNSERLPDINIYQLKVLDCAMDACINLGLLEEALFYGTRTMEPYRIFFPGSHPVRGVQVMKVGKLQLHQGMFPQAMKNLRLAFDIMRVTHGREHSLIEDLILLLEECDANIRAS
SMILES,IC50 (read-out: SMYD3 Biochem IC50) [µM],other results
"CCc1nc(C(=O)N[C@H]2CC[C@H](N)CC2)n[nH]1 [compound 535, N-((1r,4r)-4-aminocyclohexyl)-5-ethyl-1H-1,2,4-triazole-3-carboxamide]",,IC50 [1]: > 50 µM
"CC(NC(=O)c1ccncc1F)C1CCN(C(=O)[C@H](C)N)CC1 (stereo partly drawn) [compound 267, N-(1-(1-(L-alanyl)piperidin-4-yl)ethyl)-3-fluoroisonicotinamide]",> 100,
"N[C@H]1CC[C@H](NC(=O)c2ccc(-n3cncn3)cc2)CC1 [compound 455, N-((1r,4r)-4-aminocyclohexyl)-4-(1H-1,2,4-triazol-1-yl)benzamide]",> 100,
"CCc1cc(C(=O)N[C@H]2CC[C@H](N)CC2)on1 [compound 14, N-((1r,4r)-4-aminocyclohexyl)-3-ethylisoxazole-5-carboxamide]",,IC50 [2]: 104 µM
"CC(NC(=O)c1ccc2nccc(N)c2c1)C1CCN(C(=O)[C@H](C)N)CC1 (stereo partly drawn) [compound 212, N-(1-(1-(L-alanyl)piperidin-4-yl)ethyl)-4-aminoquinoline-6-carboxamide]",15.2,
"CCc1nnc(C(=O)N[C@H]2CC[C@H](NC(=O)CCN)CC2)[nH]1 [compound 536, N-((1r,4r)-4-(3-aminopropanamido)cyclohexyl)-5-ethyl-4H-1,2,4-triazole-3-carboxamide]",,IC50 [1]: > 50 µM
"CC(=O)Nc1ccc(S(=O)(=O)N2CCC(NC(=O)c3cnn(C)c3)CC2)cc1 [compound 8, N-(1-((4-acetamidophenyl)sulfonyl)piperidin-4-yl)-1-methyl-1H-pyrazole-4-carboxamide]",,IC50 [2]: > 100 µM
"CC(NC(=O)Cc1ccc2c(c1)CC(=O)N2)C1CCN(C(=O)[C@H](C)N)CC1 (stereo partly drawn) [compound 466, N-(1-(1-(L-alanyl)piperidin-4-yl)ethyl)-2-(2-oxoindolin-5-yl)acetamide]",60,
"N[C@H]1CC[C@H](NC(=O)c2cc3cc(F)ccc3[nH]2)CC1 [compound 242, N-((1r,4r)-4-aminocyclohexyl)-5-fluoro-1H-indole-2-carboxamide]",> 100,
"N[C@H]1CC[C@H](NC(=O)Cc2cccc(C(F)(F)F)c2)CC1 [compound 457, N-((1r,4r)-4-aminocyclohexyl)-2-(3-(trifluoromethyl)phenyl)acetamide]",> 100,
"N[C@H]1CC[C@H](NS(=O)(=O)c2ccc3c(c2)CC(=O)N3)CC1 [compound 429, N-((1r,4r)-4-aminocyclohexyl)-2-oxoindoline-5-sulfonamide]",14.5,
"N[C@H]1CC[C@H](NC(=O)c2ccc3nc[nH]c3c2)CC1 [compound 161, N-((1r,4r)-4-aminocyclohexyl)-1H-benzo[d]imidazole-6-carboxamide]",,IC50 [2]: > 100 µM
"Cn1cnc(C(=O)N[C@H]2CC[C@H](N)CC2)n1 [compound 544, N-((1r,4r)-4-aminocyclohexyl)-1-methyl-1H-1,2,4-triazole-3-carboxamide]",,IC50 [1]: > 50 µM
"CCc1cccc(C(=O)N[C@H]2CCN(S(=O)(=O)CCCN)[C@H](C)C2)c1 (racemic) [compound 573, (±)-trans-N-(1-((3-aminopropyl)sulfonyl)-2-methylpiperidin-4-yl)-3-ethylbenzamide]",,IC50 [1]: > 10 µM
"CC(NC(=O)c1cnc2ccccc2n1)C1CCN(C(=O)[C@H](C)N)CC1 (stereo partly drawn) [compound 238, N-(1-(1-(L-alanyl)piperidin-4-yl)ethyl)quinoxaline-2-carboxamide]",> 100,
"N[C@H]1CC[C@H](C(=O)N[C@H]2CC[C@H](NC(=O)c3ncn[nH]3)CC2)CC1 [compound 539, N-((1R,4r)-4-((1r,4R)-4-aminocyclohexane-1-carboxamido)cyclohexyl)-1H-1,2,4-triazole-5-carboxamide]",,IC50 [1]: > 50 µM
"Cc1nc(-c2ccc(C(=O)NC(C)C3CCN(C(=O)[C@H](C)N)CC3)cc2)no1 (stereo partly drawn) [compound 179, N-(1-(1-(L-alanyl)piperidin-4-yl)ethyl)-4-(5-methyl-1,2,4-oxadiazol-3-yl)benzamide]",,IC50 [2]: > 100 µM
"CC(NC(=O)c1cccnc1)C1CCN(C(=O)[C@H](C)N)CC1 (stereo partly drawn) [compound 141, N-(1-(1-(L-alanyl)piperidin-4-yl)ethyl)nicotinamide]",,IC50 [2]: > 100 µM
"Cc1cnc(C(=O)N[C@H]2CC[C@H](N)CC2)cn1 [compound 186, N-((1r,4r)-4-aminocyclohexyl)-5-methylpyrazine-2-carboxamide]",> 100,
"N[C@H]1CC[C@H](NC(=O)c2ncc[nH]2)CC1 [compound 502, N-((1r,4r)-4-aminocyclohexyl)-1H-imidazole-2-carboxamide]",> 100,
"NCCC(=O)NC1CCC(NC(=O)c2ccc3c(c2)CC(=O)N3)CC1 (stereo not drawn) [compound 130, N-(4-(3-aminopropanamido)cyclohexyl)-2-oxoindoline-5-carboxamide]",,IC50 [2]: 0.29 µM
"CC(NC(=O)c1ccc2[nH]c(=O)[nH]c2c1)C1CCN(C(=O)[C@H](C)N)CC1 (stereo partly drawn) [Cpd. No. 93, N-(1-(1-((S)-2-aminopropanoyl)piperidin-4-yl)ethyl)-2-oxo-2,3-dihydro-1H-benzo[d]imidazole-5-carboxamide]",,IC50 [2]: 6.76 µM
"CCOC(=O)C(NC(=O)c1ccc2c(c1)CC(=O)N2)C1CCNCC1 (stereo not drawn) [compound 122, ethyl 2-(2-oxoindoline-5-carboxamido)-2-(piperidin-4-yl)acetate]",,IC50 [2]: 42.3 µM
"N[C@H]1CC[C@H](NC(=O)c2ccc3c(c2)CCCC3)CC1 [compound 204, N-((1r,4r)-4-aminocyclohexyl)-5,6,7,8-tetrahydronaphthalene-2-carboxamide]",47.4,
"CC(NC(=O)Cc1c[nH]c2cccnc12)C1CCN(C(=O)[C@H](C)N)CC1 (stereo partly drawn) [compound 406, N-(1-(1-(L-alanyl)piperidin-4-yl)ethyl)-2-(1H-pyrrolo[3,2-b]pyridin-3-yl)acetamide]",> 100,

# More lines, main results first:
IC50 (read-out: SMYD3 Biochem IC50) [µM],SMILES,other results
> 100,"NCCC(=O)N[C@H]1CC[C@H](NC(=O)c2ccc3c(c2)CNC3=O)CC1 [compound 503, N-((1r,4r)-4-(3-aminopropanamido)cyclohexyl)-1-oxoisoindoline-5-carboxamide]",
> 100,"NCCC(=O)N[C@H]1CC[C@H](NC(=O)c2cccc(F)n2)CC1 [compound 422, N-((1r,4r)-4-(3-aminopropanamido)cyclohexyl)-6-fluoropicolinamide]",
> 100,"NCCC(=O)N[C@H]1CC[C@H](NC(=O)c2cccc(N)n2)CC1 [compound 385, 6-amino-N-((1r,4r)-4-(3-aminopropanamido)cyclohexyl)picolinamide]",
> 100,"COc1cccc(C(=O)N[C@H]2CC[C@H](NC(=O)CCN)CC2)n1 [compound 353, N-((1r,4r)-4-(3-aminopropanamido)cyclohexyl)-6-methoxypicolinamide]",
> 50,"NCCC(=O)NC1CCC(NC(=O)c2ncc[nH]2)CC1 (stereo not drawn) [compound 518, N-(4-(3-aminopropanamido)cyclohexyl)-1H-imidazole-2-carboxamide]",
> 100,"NCCC(=O)N[C@H]1CC[C@H](NC(=O)Cc2cccnc2)CC1 [compound 363, 3-amino-N-((1r,4r)-4-(2-(pyridin-3-yl)acetamido)cyclohexyl)propanamide]",
43.6,"NCCC(=O)N[C@H]1CC[C@H](NC(=O)c2ccc(N3CCCC3)cc2)CC1 [compound 279, N-((1r,4r)-4-(3-aminopropanamido)cyclohexyl)-4-(pyrrolidin-1-yl)benzamide]",
> 100,"NCCC(=O)N[C@H]1CC[C@H](NC(=O)c2ccnc(O)c2)CC1 [compound 376, N-((1r,4r)-4-(3-aminopropanamido)cyclohexyl)-2-hydroxyisonicotinamide]",

# Reference: US10266526B2, “Substituted 1,2,3-triazoles as SMYD inhibitors for treating cancer” (EPIZYME, INC., priority 2014, dated 2019)
